“Also recorded” adds a separate entry of the source. Like-named read-outs stand apart in the source and are kept apart here.
Tests used:
[1] = system: polyoma virus transformed BHK21/c13 cells, clone S100T1; test: Clonal test: clonal growth of S100T1 cells in soft agar (Exp 2, 4, 6, 15, 16); assay type: cell-based, hamster; conditions: for Significance: Exp 15, 5th day, ” = as line above; for Clonal growth: Exp 15, plate read the 5th day
Experimental: The clonal test comprises: • 1. seeding cells in soft agar optionally containing growth factor(s); • 2. handling or incubation of special gels (e.g. ultra low gelling temperature agarose), including the production of cell density gradients. • 3. incubating in suitable temperature and atmosphere and; • 4. regular monitoring of the cells and development of clones.
The clonal test can be directed in fluid medium or in soft agar medium. Usually only transformed cells will form clones in soft agar.
After seeding and mixing, the tubes were placed in the refrigerator for about 1 hour to consolidate the ultra low melting point agarose.
120000 S100T1 cells of a polyoma virus transformed BHK21/c13 cell line, were seeded in 1 ml soft agar medium in Falcon 50 ml centrifuge tubes. […] On the top of the agar layer 0.5 ml fluid medium was added.
Agar cultures were prepared in wells of 24 well Falcon tissue culture plate. […] Insulin (Actrapid, Novo) was added in a concentration of 0.1 i.u./ml to BHK21/c13 cell cultures only.
The cells were all single cells. Each well received 32000 cells (Table 4). Plate: 24 wells Falcon tissue culture plate received a bottom layer composed as in Table 3:
The cells were all single cells.
The wells contained two layers, each of 0.3 ml agar.
The agarose was added to double distilled water and solved by heating in micro oven.

[2] = system: polyoma virus transformed BHK21/c13 cells, line S100T1; test: Collocation inhibition test: clonal growth in sparsely and densely seeded areas of a cell density gradient of S100T1 cells in soft agar (Exp 13, 17, 19-26); conditions: for Clonal growth read on the 3rd day after seeding / Clonal growth read on the 6th day after seeding: Exp 17; for Inhibition of clonal growth of sparsely seeded cells: 117000 S100T1 cells/well;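 on all read-outs here: soft agar cultures in 24-well plates with a cell density gradient in the top layer, compounds applied from DMSO stocks, clonal growth scored in sparse versus dense areas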
[3] = High conc., μM in wells: No 1 (4-OH—OPB) 20, 2 (Colchicine) 0.1, 3 (Diphenylhydantoin) 100, 4 (Podophyllotoxin) 0.3, 5 (Piroxicam) 50, 6 (Diclofenak) 100
[4] = Low conc., μM in wells: No 1 (4-OH—OPB) 2, 2 (Colchicine) 0.01, 3 (Diphenylhydantoin) 10, 4 (Podophyllotoxin) 0.03, 5 (Piroxicam) 5, 6 (Diclofenak) 10, 7 (Ibuprofen) 100, 8 (Naproxen) 50, 9 (Acetylsalicylic acid) 100
[5] = High conc., μM in wells: No 1 (4-OH—OPB) 20, 2 (Colchicine) 0.1, 3 (Diphenylhydantoin) 100, 4 (Podophyllotoxin) 0.3, 5 (Piroxicam) 50, 6 (Diclofenak) 100, 7 (Ibuprofen) 1000, 8 (Naproxen) 500, 9 (Acetylsalicylic acid) 1000
[6] = High: #1 Colchicine 1, #2 Podophyllotoxin 3, #3 Etoposide 200, #4 4-OH—OPB 6.7 μM in wells, #5 DMSO 29.2 μl
[7] = Low: #1 Colchicine 0.1, #2 Podophyllotoxin 0.3, #3 Etoposide 20, #4 4-OH—OPB 0.67 μM in wells, #5 DMSO 1.16 μl
[8] = Medium: #1 Colchicine 0.3, #2 Podophyllotoxin 0.9, #3 Etoposide 60, #4 4-OH—OPB 2 μM in wells, #5 DMSO 6.8 μl
[9] = Experiment 23, A (area with high cell density), High concentration, 48 hours
[10] = Experiment 23, A (area with high cell density), Low concentration, 48 hours
[11] = Experiment 23, A (area with high cell density), Medium concentration, 48 hours
[12] = Experiment 23, B (area with low cell density), High concentration, 48 hours
[13] = Experiment 23, B (area with low cell density), Low concentration, 48 hours
[14] = Experiment 23, B (area with low cell density), Medium concentration, 48 hours
[15] = Summary Table 3 of analogue tests (experiments 22-25), H (high cell density), High concentration
[16] = Summary Table 3 of analogue tests (experiments 22-25), H (high cell density), Low concentration
[17] = Summary Table 3 of analogue tests (experiments 22-25), H (high cell density), Medium concentration
[18] = Summary Table 3 of analogue tests (experiments 22-25), L (low cell density), High concentration
[19] = Summary Table 3 of analogue tests (experiments 22-25), L (low cell density), Low concentration
[20] = Summary Table 3 of analogue tests (experiments 22-25), L (low cell density), Medium concentration
[21] = 4-OH-OPB analogues, S100T1 in soft agar, high concentration
[22] = 4-OH-OPB analogues, S100T1 in soft agar, low concentration
[23] = 4-OH-OPB analogues, S100T1 in soft agar, medium concentration
[24] = sparsely seeded areas while densely seeded areas of the same culture showed significant growth
[25] = Experiment 22, H: area with high cell density, High concentration
[26] = Experiment 22, H: area with high cell density, Low concentration
[27] = Experiment 22, H: area with high cell density, Medium concentration
[28] = Experiment 22, L: area with low cell density, Low concentration
[29] = Experiment 22, L: area with low cell density, Medium concentration
[30] = Experiment 22, L: area with low cell density, High concentration

Compound | Significance [1, 3] | Significance [1, 4] | Clonal growth [1, 5] | Clonal growth [1, 4] | Clonal growth read on the 3rd day after seeding [2, 6] | Clonal growth read on the 6th day after seeding [2, 7] | Clonal growth read on the 3rd day after seeding [2, 8] | Clonal growth read on the 6th day after seeding [2, 8] | Clonal growth [2, 15] | Clonal growth [2, 16] | Clonal growth [2, 17] | Clonal growth [2, 18] | Clonal growth [2, 19] | Clonal growth [2, 20] | Clonal growth, H: high density area of cell gradient, High [2, 21] | Clonal growth, L: low density area of cell gradient, High [2, 21] | Clonal growth, H: high density area of cell gradient, Low [2, 22] | Clonal growth, L: low density area of cell gradient, Low [2, 22] | Clonal growth, H: high density area of cell gradient, Medium [2, 23] | Clonal growth, L: low density area of cell gradient, Medium [2, 23] | also measured
Oc1ccc(N=Nc2ccccc2)cc1 [#1, p-hydroxy-azobenzene] | yes | yes | − | − | − | + | ++ | + | +(+) | +++ | +++ | +− | ++ | ++ |  |  |  |  |  |  | Clonal growth, H: high density area of cell gradient, Low [2]: +++; Clonal growth, H: high density area of cell gradient, Medium [2]: +++; Clonal growth, L: low density area of cell gradient, High [2]: +−; Clonal growth, L: low density area of cell gradient, Low [2]: ++; Clonal growth, L: low density area of cell gradient, Medium [2]: ++; Clonal inhibition by 4-OH-OPB analogues, summary of Exp 22-25 [2]: complete inhibition of growth in sparsely seeded areas; Clonal growth read on the 3rd day after seeding [2, 7]: ++; Clonal growth [2, 9]: +(+); Clonal growth [2, 10]: +++; Clonal growth [2, 11]: +++; Clonal growth [2, 12]: +−; Clonal growth [2, 13]: ++; Clonal growth [2, 14]: ++
CCCCC(O)(C(=O)Nc1ccccc1)C(=O)Nc1ccc(O)cc1 (stereo not shown) [#2, 2-Butyl-2-hydroxy-N-(4-hydroxy-phenyl)-N′-phenyl malonamide] | no | no |  | ++ |  | + |  | (+ | ++ | ++(+) | ++ | − | ++ | ++ | ++ | − | ++(+) | ++ | ++ | ++ | Clonal growth [2, 9]: ++; Clonal growth [2, 10]: ++(+); Clonal growth [2, 11]: ++; Clonal growth [2, 12]: −; Clonal growth [2, 13]: ++; Clonal growth [2, 14]: ++; Clonal inhibition by 4-OH-OPB analogues, summary of Exp 22-25 [2, 24]: complete inhibition of growth in sparsely seeded areas
CCCCC(=O)C(=O)Nc1ccccc1 [#3, 2-oxo-hexanoic acid phenylamide] | ” | ” |  | ++ | (+) | + | (+) |  | ++ | ++(+) | ++(+) | ++ | ++(+) | ++(+) | ++ | ++ | ++(+) | ++(+) | ++(+) | ++(+) | Clonal growth read on the 6th day after seeding [2, 6]: −; Effect on growth ([2]; Exp 23, 180000 S100T1 cells/well): did not show significant growth inhibition at all; Clonal growth [2, 9]: ++; Clonal growth [2, 10]: ++(+); Clonal growth [2, 11]: ++(+); Clonal growth [2, 12]: ++; Clonal growth [2, 13]: ++(+); Clonal growth [2, 14]: ++(+)
CCCCC(C(=O)Nc1ccccc1)C(=O)Nc1ccc(O)cc1 (stereo not shown) [#4, 2-Butyl-N-(4-hydroxy-phenyl)-N′-phenylmalonamide] | probably | ” |  |  | − | + | − | ((+)) | ++ | ++ | ++ |  | ++ | ++ | ++ | ((+)) | ++ | ++ | ++ | ++ | Clonal growth read on the 6th day after seeding [2, 6]: ((+)); Clonal growth read on the 3rd day after seeding [2, 7]: +; Inhibition of clonal growth of sparsely seeded cells ([2]; Exp 22): smaller effect; also recorded: showed an effect, but even higher concentration was needed than for #6; Clonal growth [2, 25]: ++; Clonal growth [2, 26]: ++; Clonal growth [2, 27]: ++; Clonal growth [2, 28]: ++; Clonal growth [2, 29]: ++
O=C1N(c2ccccc2)N(c2ccccc2)C(=O)C1(O)CC[S+]([O-])c1ccccc1 (stereo not shown) [#6, 1,2-diphenyl-4-hydroxy-4-[2-(phenylsulfinyl)ethyl]-3,5-pyrazolidinedione] | ” | probably* | ++ |  |  |  |  |  | ++ | ++ | ++ | − | ++ |  | ++ | − | ++ | ++ | ++ | ((+)) | Effect at low concentration ([2]; Exp 22): no effect was observed; Inhibition of clonal growth of sparsely seeded cells ([2]; Exp 22): best inhibitor of clonal growth of sparsely seeded cells; Clonal growth [2, 25]: ++; Clonal growth [2, 26]: ++; Clonal growth [2, 27]: ++; Clonal growth [2, 30]: −; Clonal growth [2, 28]: ++; Clonal inhibition by 4-OH-OPB analogues, summary of Exp 22-25 [2, 24]: complete inhibition of growth in sparsely seeded areas
CCCCC1(O)C(=O)N(c2ccccc2)N(c2ccc(OC)cc2)C1=O (stereo not shown) [#7, 4-(1-butyl)-4-hydroxy-1-(4-methoxyphenyl)-2-phenyl-3,5-pyrazolidinedione] |  | no | − |  |  |  |  |  | ++ | ++ | ++ | (+) | ++ | ++ | ++ | (+) | ++ | ++ | ++ | ++ | Inhibition of clonal growth of sparsely seeded cells ([2]; Exp 22): smallest effect; also recorded: might have a small similar effect; Clonal growth [2, 25]: ++; Clonal growth [2, 26]: ++; Clonal growth [2, 27]: ++; Clonal growth [2, 30]: (+); Clonal growth [2, 28]: ++; Clonal growth [2, 29]: ++

Source: patent US20060121449A1, “Method for selection of compounds which inhibit clonal cell growth and use thereof” (priority 2002, published 2006)
